Active and inactive are the calls of the source. How the calls were made is not given here. Where a SMILES comes first, the peptide text is derived from it.
Assays:
[1] = system: Mycobacterium tuberculosis H37Rv growth in 7H9 media; assay: M. tuberculosis growth inhibition, dose response, H37Rv, purified and synthesized compounds (AID 493198); conditions: for IC90: 90% growth inhibition concentration
[2] = as above; conditions: Mycobacterium tuberculosis H37Rv growth in 7H9 media; at 100 µM (top of the series)

Compound	IC50 [1] [nM]	IC90 [1] [nM]	growth inhibition [2]
COC(=O)CCc1nc2c(C#N)c(-c3ccc(Cl)cc3)ccn2n1	< 200	14000	–
Cc1ccc2ccc3ccc(C)nc3c2n1	< 200	< 200	–
S=c1nc[nH]c2nc[nH]c12	1280	1760	–
COC(=O)c1cc(=O)n(-c2ccc(F)cc2)c(=Nc2ccc(F)cc2)s1	< 200	1580	–
CC(=NCc1ccc2c(c1)OCO2)C1=C(O)c2ccccc2C1=O	< 200	23100	–
O=C(CSc1nc2ccccc2c(=O)[nH]1)NC1CCCCC1	< 200	< 200	–
c1ccc(/N=C2\N=C(Nc3ccccn3)c3ccccc32)nc1	< 200	< 200	–
CCOC(=O)c1ccc(NC(=O)Cn2ncc(Cl)c(Cl)c2=O)cc1	< 200	203	–
Cc1ccc2c(c1)c(C1=c3ccccc3=NC1=O)c(O)n2C	< 200	1870	–
Cc1nn2c(NCc3ccccn3)cc(C(C)C)nc2c1-c1ccccc1	1030	1560	–
O=C1C(Br)=Cc2cccc3cccc1c23	< 200	< 200	–
CCC(C)Nc1ccc(NC(C)CC)cc1 (centres undefined)	609	1660	–
O=C(CSc1nc2ccccc2c(=O)[nH]1)NCc1ccc(Cl)cc1	< 200	929	–
O=C(NCC(c1cccs1)N1CCOCC1)c1cc([N+](=O)[O-])cc([N+](=O)[O-])c1 (centres undefined)	< 200	< 200	–
COC(=O)C1CC(=O)N(c2ccc(OCc3ccccc3Cl)cc2)C1 (centres undefined)	< 200	18400	–
CNc1nc(SCc2ccccc2Cl)nc2c1CCCC2	< 200	5050	–
CC(C)NC(=O)c1sc(=S)n2c1[nH]c(=O)c1ccc(C(=O)NCCc3ccc(Cl)cc3)cc12	< 200	< 200	–
CCc1ccc(/C=C2/C(=O)N(C)C(=S)N2CC(=O)OC)s1	2270	17700	–
COC(=O)C(C)Oc1ccc(-c2nccc(-c3ccccn3)n2)cc1 (centres undefined)	1190	2920	–
CCOC(=O)COc1ccc(/C=C2\NC(=S)N(CC)C2=O)cc1	1310	5200	–
Cc1nc(SCC(=O)NC2CCCCC2)[nH]c(=O)c1C	< 200	< 200	–
O=C(/C=C/c1ccccc1)N1CCN(CCN2C(=O)c3cccc4cccc(c34)C2=O)CC1	3470	5320	–
Cc1cccc(/C=C/C(=O)c2ccc([N+](=O)[O-])o2)c1	< 200	< 200	–
CCOC(=O)C(C)Sc1ncnc2c1nnn2-c1ccc(F)cc1 (centres undefined)	< 200	7770	–
CCOC(=O)COn1c2c(c3c4no[n+]([O-])c4ccc31)CCCC2	1580	3110	–
Oc1ccccc1/C=N/Nc1ccnc(SCc2ccccc2)n1	–	–	2.04% (inactive)
Cc1ccc(NC(=O)C2C3/C=C\CCCCC32)cc1C (centres undefined)	1170	1840	–
CCOC(=O)CNC(=O)[C@H](Cc1ccccc1)NC(=O)OCc1ccccc1 (HELM PEPTIDE1{[O=C(OCc1ccccc1)[*:2]].F.G.[CCO[*:1]]}$$$$V2.0)	1090	1860	–
COc1cc(NC(=O)C/C(C)=N/NC(=O)c2ccccn2)c(OC)cc1Cl	1940	4880	–
O=C(/C=C\c1cccs1)N1CCN(Cc2ccc3c(c2)OCO3)CC1	445	7480	–

— PubChem BioAssay AID493198 (Southern Research Specialized Biocontainment Screening …, 2011)
